Melting point data for 1 compound are collected here from patent publication US8426424B2, “Certain substituted amides, method of making, and method of use thereof” (CGI Pharmaceuticals, Inc., priority 2008, dated 2013).

Take `Cc1c(NC(=O)c2cc3c(s2)C2CCC3C2)cccc1-c1cn(C)c(=O)c(Nc2ccc(C3C(=O)N(C)CCN3C)cc2)n1` (stereo not shown) [1q, N-(3-(6-(4-(1,4-Dimethyl-3-oxopiperazin-2-yl)phenylamino)-4-methyl-5-oxo-4,5-dihydropyrazin-2-yl)-2-methylphenyl)-4,5,6,7-tetrahydro-4,7-methanobenzo[b]thiophene-2-carboxamide]: the melting point was 178 to 179 °C.

For orientation: melting point means the temperature, or range, at which the solid turns liquid.
